Laboratory results from patent US7514068B2, “Biphenyl-pyrazolecarboxamide compounds” (Concert Pharmaceuticals Inc., priority 2005, dated 2009).
Read-outs that look alike come from different tables or passages of the source.

Experiments:
[1] = RIO-North American trial, cited from earlier work
[2] = RIO-North American Phase III clinical trial, adverse-event associated discontinuations; format: in vivo, human; conditions: 20 mg dose
Source text: In reports of these clinical trials Compound 1 was described as having a good safety profile with relatively low increases in serious adverse events across the different dose groups tested. However, it is clearly less well tolerated in higher doses, with the more common side effects including depression, anxiety, and irritability, and in some but not all studies, significant amounts of nausea. Even in a highly motivated Phase III clinical trial population, a considerable number of dose-dependent discontinuations occurred.

[3] = rat liver microsome assays; cited from earlier work
[4] = test system: rats; conditions: cited from earlier work
[5] = test system: animal models; conditions: cited from earlier work
[6] = test system: wide range of other neurological receptors; conditions: in vitro receptor binding studies; cited from earlier work
[7] = test system: CB1 vs. CB2 receptor; conditions: in vitro receptor binding studies; cited from earlier work

Row | Structure (SMILES) | first year adverse-event associated discontinuations ([1]; 5 mg dose) | first year adverse-event associated discontinuations ([1]; 20 mg dose) | increase of adverse-event associated discontinuations versus placebo [2] | sites of metabolism [3] | in vivo effects of cannabinoid agonists (hypothermia, ring immobility, increased tail flick latency) [4] | duration of action compared with Compound 1 [5] | affinity for a wide range of other neurological receptors [6] | selectivity for the CB1 vs. CB2 receptor [7]
1 | Cc1c(C(=O)NN2CCCCC2)nn(-c2ccc(Cl)cc2Cl)c1-c1ccc(Cl)cc1 [Compound 1, N-(piperidin-1-yl)-5-(4-chlorophenyl)-1-(2,4-dichlorophenyl)-4-methyl-1H-pyrazole-3-carboxamide] | 9.4% | 12.8% | 77% | hydroxylation only on the pyrazole 3-substituent |  |  |  | 
2 | CCc1c(C(=O)NN2CCCCC2)nn(-c2ccc(Cl)cc2Cl)c1-c1ccc(Br)cc1 [Compound 1A, 5-(4-bromophenyl)-1-(2,4-dichlorophenyl)-4-ethyl-N-(1-piperidinyl)-1H-pyrazole-3-carboxamide] |  |  |  |  | reverse | longer | little affinity | highly selective
